Measurements from US6458806B1, “Aryl alkenamides derivatives as MCP-1 antagonists” (Millennium Pharmaceuticals, Inc., priority 1996, dated 2002).
Counter-ions that a name gives are not always drawn.

System: CD3-Blasts
Experiment: CD3-Blast chemotaxis assay (transendothelial migration to MCP-1)
Type: cell-based
Conditions: ECV-304; migration of human CD3-Blasts to about 10 nM MCP-1 across ECV304 endothelial cells, approximately 1 hour
From the text: CD3—Blast Chemotaxis Assay
Recombinant human MCP-1 was obtained from Peprotech (Rockey Hill, N.J.). T lymphocyte blast cells (CD3-Blasts) were generated by standard protocols (Coligan, J. E., A. M. Kruisbeek, D. H. Macgulies, E. M. Shevach, and W. Strober, editors. 1992. Current Protocols in Immunology. John Wiley and Sons, New York, 7.1.2, 7.10.1-7.10.10). Briefly, human peripheral blood mononuclear cells (PBMC) were isoltated from heparinized venous blood by Percoll density gradient centrifugation (d=1.088) at room temperature. RBCs were removed by hypotonic lysis or Dextran sedimentation. […] CD3-Blast chemotaxis was assessed no sooner than 3 to 4 days after transfer to the IL-2 containing medium using a modification of a transendothelial migration assay (Carr. M. W., S. J. Roth, B. Luther, S. S. Rose, and T. A. Springer. 1994. Monocyte chemoattractant protein 1 acts as a T-lymphocyte chemoattractant. Proc. Natl. Acad. Sci. USA 91:3652-6). […] Background migration was determined by counting cells that migrated in the absence of MCP-1 in the lower chamber. […] The percent inhibition by compounds of directed migration was determined by the following formula: [formula] […]

`O=C(/C=C/C=C/c1ccc(Cl)c(Cl)c1)NCCCN1CCCCC1` [Example 1, 5-(3,4-Dichloro-phenyl)-penta-2,4-dienoic Acid (3-piperidin-1-yl-propyl)-amide-HCl] was tested, and the IC50 was 23 µM.
